Measured values: ChEMBL document CHEMBL5303304, “EUbOPEN Chemogenomics Library - IncuCyte” (2023)

Assays:
Type in all cases: toxicity, cell-based
HEK-293T = experiment: Incucyte cell viability with HEK293T; conditions: human, 10 µM, compound concentration 10 uM
Fibroblast = experiment: Incucyte cell viability with human fibroblast; conditions: 10 µM, compound concentration 10 uM
U2OS = experiment: Incucyte cell viability with U2OS; conditions: human, 10 µM, compound concentration 10 uM
Also: unitless GR value; below 1 slowed growth and below 0 cell loss.

| SMILES | Growth Rate (HEK-293T; 0 h, replicate number 1) | Growth Rate (HEK-293T; 6 h, replicate number 1) | Growth Rate (HEK-293T; 6 h, replicate number 2) | Growth Rate (HEK-293T; 12 h, replicate number 2) | Growth Rate (HEK-293T; 18 h, replicate number 2) | Growth Rate (HEK-293T; 24 h, replicate number 1) | Growth Rate (HEK-293T; 24 h, replicate number 2) | Growth Rate (Fibroblast; 12 h, replicate number 2) | Growth Rate (Fibroblast; 18 h, replicate number 1) | Growth Rate (Fibroblast; 18 h, replicate number 2) | Growth Rate (Fibroblast; 24 h, replicate number 2) | Growth Rate (U2OS; 6 h, replicate number 2) | Growth Rate (U2OS; 12 h, replicate number 1) | Growth Rate (U2OS; 12 h, replicate number 2) | Growth Rate (U2OS; 18 h, replicate number 1) | Growth Rate (U2OS; 24 h, replicate number 1) | Growth Rate (U2OS; 24 h, replicate number 2) | Growth Rate (Fibroblast; 0 h, replicate number 2) | Growth Rate (Fibroblast; 6 h, replicate number 1) | Growth Rate (U2OS; 6 h, replicate number 1) | also measured |
| --- | --- | --- | --- | --- | --- | --- | --- | --- | --- | --- | --- | --- | --- | --- | --- | --- | --- | --- | --- | --- | --- |
| O=C1Nc2ccc(C(=O)c3ccco3)cc2C1=Cc1cc(Cl)c(O)c(Cl)c1 [GW406108X] | -1 | 0.79 | 0.56 | 0.31 | 0.17 | 0.24 | 0.11 | 1 | 1 | 0.83 | 0.64 | -0.19 | 0.5 | 0.24 | 0.4 | 0.56 | 0.38 |  |  |  | Growth Rate (HEK-293T; 0 h, replicate number 2): 0.57; Growth Rate (HEK-293T; 12 h, replicate number 1): 0.25; Growth Rate (HEK-293T; 18 h, replicate number 1): 0.41; Growth Rate (Fibroblast; 0 h, replicate number 1): -1; Growth Rate (Fibroblast; 24 h, replicate number 1): 0.7; Growth Rate (U2OS; 18 h, replicate number 2): 0.33 |
| Cc1ncsc1-c1ccc(CNC(=O)[C@@H]2C[C@@H](O)CN2C(=O)[C@@H](NC(=O)CCCCNC(=O)c2ccc(-c3ccc(N4CCN(C)CC4)c(NC(=O)c4c[nH]c(=O)cc4C(F)(F)F)c3)cc2)C(C)(C)C)cc1 | -0.12 |  | 0.8 |  | 0.86 |  | 0.72 | 0.74 | 0.33 | 0.86 |  | 0.89 |  | 0.84 | 0.96 | 0.61 | 0.71 | 0.64 | 0.29 | 0.86 | Growth Rate (Fibroblast; 0 h, replicate number 1): 0.97; Growth Rate (Fibroblast; 12 h, replicate number 1): 0.65; Growth Rate (Fibroblast; 24 h, replicate number 1): 0.46; Growth Rate (U2OS; 0 h, replicate number 1): 0.71; Growth Rate (U2OS; 18 h, replicate number 2): 0.79 |
| O=C1CCC(N2Cc3cc(CNC(=O)C(F)(F)c4ccc(Cl)cc4)ccc3C2=O)C(=O)N1 (centres undefined) |  |  |  |  | 1 | 0.89 |  | 0.51 |  | 0.98 | 0.99 | 0.89 | 0.97 | 0.98 |  | 0.99 | 0.85 |  |  | 0.81 | Growth Rate (HEK-293T; 0 h, replicate number 2): 0.81; Growth Rate (HEK-293T; 12 h, replicate number 1): 0.83; Growth Rate (HEK-293T; 18 h, replicate number 1): 0.81; Growth Rate (U2OS; 0 h, replicate number 2): 0.39 |
| COc1cc(-c2cn[nH]c2)ccc1C(=O)Nc1ccc2c(c1)CCNCC2.Cl | -0.67 |  |  |  |  |  |  |  |  |  |  | 0.77 | 0.82 | 0.78 | 0.75 | 0.87 | 0.63 | 0.05 |  |  | Growth Rate (Fibroblast; 0 h, replicate number 1): 0.68; Growth Rate (U2OS; 18 h, replicate number 2): 0.59 |
| Cc1cccc(F)c1C(=O)Nc1cnc(-c2cc3c(cc2Cl)OC(F)(F)O3)cn1 [ZEGOCRACTIN] |  | -0.06 | -0.48 | -0.06 | 0.31 | 0.34 |  | 0.2 | 0.77 | 0.4 | 0.26 | 0.28 | 0.45 | 0.78 | 0.72 | 0.8 | 0.92 | -0.42 |  | 0.26 | Growth Rate (HEK-293T; 12 h, replicate number 1): 0.19; Growth Rate (HEK-293T; 18 h, replicate number 1): 0.24; Growth Rate (Fibroblast; 6 h, replicate number 2): -0.57; Growth Rate (Fibroblast; 12 h, replicate number 1): -0.81; Growth Rate (Fibroblast; 24 h, replicate number 1): 0.84; Growth Rate (U2OS; 0 h, replicate number 1): 0.13; Growth Rate (U2OS; 0 h, replicate number 2): -0.79; Growth Rate (U2OS; 18 h, replicate number 2): 0.9 |
| CC1(C)Oc2ncnc(N)c2N=C1c1ccc([C@H]2CC[C@H](CC(=O)O)CC2)cc1 |  | 0.77 | 0.36 |  |  | 0.94 | 0.99 |  |  |  | 0.97 | 0.92 |  | 0.89 | 0.85 | 0.96 |  | -0.9 | 0.56 | 0.57 | Growth Rate (HEK-293T; 0 h, replicate number 2): -0.22; Growth Rate (HEK-293T; 18 h, replicate number 1): 0.89; Growth Rate (Fibroblast; 0 h, replicate number 1): -0.99; Growth Rate (Fibroblast; 12 h, replicate number 1): 0.81; Growth Rate (U2OS; 0 h, replicate number 1): 0.58; Growth Rate (U2OS; 0 h, replicate number 2): -0.4 |
| Cc1n[nH]c2ncc(C(=O)N3CCC[C@H]3c3ccc(Cl)cc3)cc12 | 0.29 |  | 0.58 | 0.96 | 1 | 1 | 0.89 | 0.76 | 0.66 | 0.99 | 0.92 |  | 0.67 |  | 0.94 | 0.91 |  |  | 0.75 | 0.34 | Growth Rate (Fibroblast; 24 h, replicate number 1): 0.73 |
| C[C@H](CCC(=O)O)[C@H]1CC[C@H]2[C@@H]3CC[C@@H]4C[C@H](O)CC[C@]4(C)[C@H]3CC[C@]12C [LITHOCHOLIC ACID] | 0.14 |  | 0.73 | 0.67 | 0.77 |  |  | 0.76 |  | 0.87 | 0.89 |  | 0.68 |  | 0.74 | 0.83 |  | 0.27 |  | 0.93 | Growth Rate (U2OS; 0 h, replicate number 1): -0.56 |
| Cc1cc2c(cc(C(=O)N[C@H](CO)c3ccc(S(=O)(=O)CC(=O)O)cc3)n2C)c(Cl)c1Cl | 0.87 | 0.99 |  |  |  | 0.99 |  | 0.77 |  | 0.68 |  | 0.7 |  | 0.94 | 0.92 | 0.95 | 1 |  | 0.15 | 0.61 | Growth Rate (U2OS; 18 h, replicate number 2): 0.79 |
| CCCC(=O)C1CCN(c2ncnc3c2CN(C(=O)c2ccc(-c4ccccc4)cc2)CC3)CC1 |  | 0.24 | 0.35 | 0.75 | 0.82 |  | 0.74 | 0.73 | 0.74 | 0.93 | 0.9 |  | 0.92 |  | 0.81 | 0.83 |  |  | 0.84 | 0.51 | Growth Rate (Fibroblast; 6 h, replicate number 2): -1 |
| COc1cc(O)c(C(CC(=O)N2C[C@H](C)C[C@H](C)C2)c2ccc3c(c2)OCO3)c(OC)c1 (some centres undefined) | 0.81 |  |  |  |  |  |  |  | 0.1 | 0.88 |  |  |  |  |  |  |  | 0.14 | -0.32 |  | Growth Rate (HEK-293T; 0 h, replicate number 2): -0.14; Growth Rate (Fibroblast; 6 h, replicate number 2): 1; Growth Rate (Fibroblast; 12 h, replicate number 1): 0.5; Growth Rate (Fibroblast; 24 h, replicate number 1): 0.74; Growth Rate (U2OS; 0 h, replicate number 1): 0.96; Growth Rate (U2OS; 0 h, replicate number 2): 0.9 |
